From PubChem BioAssay (NCI)
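These data come from cells grown in 96-well plates and exposed to compound for 48 hours at five concentrations. The concentration for full growth arrest is given as TGI.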

Key:
Test in all cases: NCI tumour cell line growth inhibition, 48 h
786-0 renal = tested on: 786-0 renal
CAKI-1 renal = tested on: CAKI-1 renal
HL-60(TB) leukemia = tested on: HL-60(TB) leukemia
MCF7 breast = tested on: MCF7 breast
MDA-MB-231 breast = tested on: MDA-MB-231 breast
OVCAR-5 ovarian = tested on: OVCAR-5 ovarian
PC-3 prostate = tested on: PC-3 prostate
RPMI-8226 leukemia = tested on: RPMI-8226 leukemia
RXF 393 renal = tested on: RXF 393 renal
SF-295 CNS = tested on: SF-295 CNS

Compound	TGI (786-0 renal) [µM]	TGI (CAKI-1 renal) [µM]	TGI (HL-60(TB) leukemia) [µM]	TGI (MCF7 breast) [µM]	TGI (MDA-MB-231 breast) [µM]	TGI (OVCAR-5 ovarian) [µM]	TGI (PC-3 prostate) [µM]	TGI (RPMI-8226 leukemia) [µM]	TGI (RXF 393 renal) [µM]	TGI (SF-295 CNS) [µM]
O=C1CCCC[C@H]1C(O)CC1CC(=O)N(c2ccccc2)C(=O)C1 (stereo not given in full)	> 100	> 100	> 100	> 100	> 100	> 100	> 100	> 100	> 100	> 100
COc1cc(Nc2nc3ccccc3nc2C(C)C)cc(OC)c1OC	> 100	> 100	> 100	> 100	> 100	> 100	> 100	> 100	> 100	> 100
COC(=O)c1ccc(C)cc1CC1Cc2c(C)cccc2C1=O (stereo not given)	34.8	30.8	24.2	7.93	8.42	> 100	> 34.6	30.3	34.3	> 52.8
C=CCn1c(-c2ccc(Cl)cc2Cl)csc1=Nc1c(C)n(C)n(-c2ccccc2)c1=O	26.7	31.7	25.8	25.4	30	31.1	20.6	> 46.3	32.1	21.2
CCOC(=O)N1N(c2ccccc2)C(=O)C1(c1ccccc1)c1ccccc1	> 100	> 100	> 100	> 100	> 100	> 100	> 100	83.5	> 100	> 100
CCCCN1C(=O)CS/C1=N/Nc1nc2c([nH]1)c(=O)n(C)c(=O)n2C	41.7	> 100	> 100	31.3	> 100	59.4	> 100	> 100	> 100	53.1
COc1ccc(N(C(=O)NCCO)c2ccccc2)cc1	> 100	> 100	> 100	> 100	> 100	> 100	> 100	> 100	> 100	> 100
CCOC(=O)c1cn2c(ccc3sc4ccccc4c(=O)c32)n1	> 100	> 100	> 100	> 100	> 100	> 100	> 100	> 100	> 100	> 100
CC(=O)c1ccccc1NS(=O)(=O)c1ccc2nc(C)n(NS(=O)(=O)c3ccccc3C(C)=O)c(=O)c2c1	> 100	> 100	> 100	> 100	> 100	> 100	> 100	> 100	> 100	> 100
CCOP(C)(=O)/C(Cc1ccc(OC)c(OC)c1)=N\O (stereo not given)	> 100	> 100	> 100	> 100	> 100	> 100	> 100	> 100	> 100	> 100
CNc1nc2c(C)ccc3[nH]c(N(C)C)nc3c-2n1	> 100	> 100	69.5	> 100	> 100	> 100	> 100	61.2	> 100	> 100
O[C@H]1[C@H](O)[C@@H](Cn2nnc(-c3ccccc3)c2-c2ccccc2)OCO[C@@H]1Cn1nnc(-c2ccccc2)c1-c1ccccc1	7.39	14.2	> 24	11.5	16.4	6.49	8.83	5.79	9.41	13
NC(N)=NS(=O)(=O)c1ccc(NC(=O)c2ccc3nc4ccccc4c(N)c3c2)cc1	> 100	> 100	> 100	> 100	> 100	> 100	> 100	> 100	> 100	> 100
CSc1ccc2c(cc1=O)[C@@H](NC(=O)c1ccc([N+](=O)[O-])cc1)CCc1cc(O)c(O)c(O)c1-2	84.1	42.6	57.5	> 100	81.2	> 100	> 100	> 100	> 100	> 100
COc1ccc(-c2nc3cc(C(F)(F)F)ccc3n2CC2CCCN3CCCCC23)cc1 (stereo not given)	35.6	59.6	30.6	25.9	27.7	62.9	26.5	28.4	33.8	36.6
Nc1ccc(OCCCc2c(-c3ccccc3)nc(N)[nH]c2=O)cc1	> 100	> 100	> 100	> 100	> 100	> 100	> 100	> 100	> 100	> 100
CN(C)Cc1cc(C(=O)/C=C/c2ccc(F)cc2)cc(CN(C)C)c1O	> 100	67.3	35.4	42.4	> 100	> 100	> 100	> 100	46.9	31.6
S=C(c1c[nH]c2ccccc12)N1CCCCC1	> 100	> 100	> 100	> 100	> 100	> 100	> 100	> 100	> 100	> 100
